Test results: PubChem BioAssay (NCI)
Values after ≈ are worked out from the molar mass of the structure shown.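 Interpolation was linear, between the two tested concentrations surrounding the appropriate level; five concentrations were tested over 48 hours in 96-well plates. GI50: concentration for 50% inhibition of growth. Definition used: TGI = concentration required for complete inhibition of growth.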

Experiments:
Assay in all cases: NCI anticancer screen, dose series, 48 h
NCI-H23 lung = test system: NCI-H23 lung
SF-539 CNS = test system: SF-539 CNS
COLO 205 colon = test system: COLO 205 colon
HCT-15 colon = test system: HCT-15 colon
KM12 colon = test system: KM12 colon
MDA-MB-435 = test system: MDA-MB-435
SK-OV-3 ovarian = test system: SK-OV-3 ovarian
SW-620 colon = test system: SW-620 colon
HOP-92 NSCLC = test system: HOP-92 NSCLC
RXF 393 renal = test system: RXF 393 renal

Row | Compound | GI50 (NCI-H23 lung) | TGI (NCI-H23 lung) | GI50 (SF-539 CNS) | TGI (SF-539 CNS) | GI50 (COLO 205 colon) | TGI (COLO 205 colon) | GI50 (HCT-15 colon) | TGI (HCT-15 colon) | GI50 (KM12 colon) [µM] | TGI (KM12 colon) [µM] | GI50 (MDA-MB-435) [µM] | TGI (MDA-MB-435) [µM] | GI50 (SK-OV-3 ovarian) [µM] | TGI (SK-OV-3 ovarian) [µM] | GI50 (SW-620 colon) | TGI (SW-620 colon) | TGI (HOP-92 NSCLC) | TGI (RXF 393 renal) | GI50 (RXF 393 renal) | GI50 (HOP-92 NSCLC) [µg/mL]
1 | C=C(C)C1CCC2(C(=O)O)CCC3(C)C(CCC4C5(C)CCC(OC(=O)NCc6ccccc6)C(C)(C)C5CCC43C)C12 (stereo not drawn) | 2.31 µM | 44 µM | 41.9 µM | > 100 µM | 1.82 µM | 5.44 µM | 3.74 µM | > 100 µM | 2.23 | 12.2 | 5.33 | > 100 | 27.8 | > 100 | 2.56 µM | > 100 µM | – | – | – | –
2 | COC(C(O)c1ccc2c(c1)OCO2)P(=O)(c1ccccc1)c1ccccc1 (stereo not drawn) | – | > 100 µM | – | > 100 µM | – | – | – | – | – | > 100 | – | – | – | – | – | > 100 µM | > 100 µM | > 100 µM | – | –
3 | N.N.O=C([O-])P(=O)([O-])[O-].[Na+].[Pt+4] | > 100 µM | > 100 µM | > 100 µM | > 100 µM | > 100 µM | > 100 µM | > 100 µM | > 100 µM | > 100 | > 100 | – | – | > 100 | > 100 | > 100 µM | > 100 µM | – | > 100 µM | > 100 µM | –
4 | OC/C=C(\I)CCCOCOCc1ccccc1 | – | > 100 µM | – | > 100 µM | – | > 100 µM | – | > 100 µM | – | > 100 | – | – | – | > 100 | – | > 100 µM | 53.4 µM | 72.3 µM | – | –
5 | C/C=C1/C(=C/c2[nH]c(/C=c3\[nH]/c(=C/C4=NC(=O)C(CC)=C4C)c(C)c3CCC(=O)O)c(CCC(=O)O)c2C)NC(=O)C1C (stereo not drawn) | > 150 µg/mL | > 150 µg/mL | > 150 µg/mL | > 150 µg/mL | > 150 µg/mL | > 150 µg/mL | > 150 µg/mL | > 150 µg/mL | – | – | – | – | – | – | > 150 µg/mL | > 150 µg/mL | > 150 µg/mL | > 150 µg/mL | > 150 µg/mL | 103 (≈ 175 µM)
6 | COc1cc2c(c(OC)c1)C1(CC(CC#N)C2)SCCS1 (stereo not drawn) | – | – | – | > 100 µM | – | > 100 µM | – | > 100 µM | – | > 100 | – | – | – | > 100 | – | > 100 µM | – | > 100 µM | – | –
7 | CCCS(=O)(=O)/C(=C(\c1ccc(Br)cc1)S(=O)(=O)CCC)c1ccc(Br)cc1 | – | > 10 µM | – | > 10 µM | – | > 10 µM | – | > 10 µM | – | > 10 | – | – | – | > 10 | – | > 10 µM | > 10 µM | > 10 µM | – | –
8 | Cc1[nH]c2ccccc2c1C1Cc2ccccc2N1C(=O)/C(Cl)=C/c1ccccc1 (stereo not drawn) | – | > 100 µM | – | > 100 µM | – | > 100 µM | – | > 100 µM | – | > 100 | – | – | – | > 100 | – | > 100 µM | > 100 µM | 89 µM | – | –
9 | N#C/C(=C\c1cc2ccccc2c2ccccc12)c1ccccc1 | – | > 95 µM | – | 19.8 µM | – | 10.6 µM | – | 39.4 µM | – | > 52.3 | – | – | – | 39 | – | 24.9 µM | > 71.7 µM | 18.6 µM | – | –
10 | COc1cccc(N2C(=O)[C@H]3CC(C)c4c([nH]c5ccccc45)[C@H]3C2=O)c1 (stereo partly drawn) | – | > 100 µM | – | 93.1 µM | – | > 100 µM | – | > 100 µM | – | > 100 | – | – | – | 72.2 | – | – | 80.5 µM | 38.8 µM | – | –
